Data reported in US11466016B2, “Pharmaceutical compounds” (priority 2018, dated 2022).
pIC50: −log10 of the molar value. Structures can show the parent of a compound that is named as a salt.

These compounds were tested against SHP2 (Homo sapiens (Human), UniProt Q06124) (assay: SHP2 Biochemical Assay (DiFMUP conversion, pIRS1 activating peptide)). Conditions: not given.
Chain of SHP2 (Q06124 whole entry): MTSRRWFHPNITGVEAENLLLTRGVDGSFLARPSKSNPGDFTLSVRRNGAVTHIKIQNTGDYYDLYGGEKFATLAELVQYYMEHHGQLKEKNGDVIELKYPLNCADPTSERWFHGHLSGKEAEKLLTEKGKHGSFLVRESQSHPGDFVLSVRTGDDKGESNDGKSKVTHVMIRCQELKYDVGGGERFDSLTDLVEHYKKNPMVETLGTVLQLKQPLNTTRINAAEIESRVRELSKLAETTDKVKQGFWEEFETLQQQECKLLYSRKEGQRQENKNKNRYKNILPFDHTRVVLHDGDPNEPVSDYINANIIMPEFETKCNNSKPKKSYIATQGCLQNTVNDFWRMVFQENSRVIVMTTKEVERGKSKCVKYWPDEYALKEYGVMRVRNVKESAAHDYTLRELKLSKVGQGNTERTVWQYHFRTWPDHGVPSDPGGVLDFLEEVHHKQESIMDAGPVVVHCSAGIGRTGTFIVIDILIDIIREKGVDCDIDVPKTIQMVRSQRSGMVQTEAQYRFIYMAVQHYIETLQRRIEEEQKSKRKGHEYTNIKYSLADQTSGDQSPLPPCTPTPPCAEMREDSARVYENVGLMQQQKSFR
Method: SHP2 activity was monitored by measuring the conversion of the surrogate substrate 6,8-difluoromethylumbelliferyl phosphate (DiFMUP) to the fluorescent product, 6,8-difluoromethylumbelliferone (DiFMU).
SHP2 was pre-incubated with test compounds and the activating peptide pIRS1 (H2N-LN(pY)IDLDLV-(PEG)8-LST(pY)ASINFQK-amide) for 30 min, prior to addition of the […] (DiFMUP), (Thermo Fisher D6567). […] Rates of reaction were then measured over 30 min by monitoring fluorescence on a BMG Pherastar reader at excitation 360 nm/emission 450 nm. IC50 values were calculated from the normalized dose-response plots using four parameter logistic curve fit.
In the case of `N[C@H]1C[C@H]2CC[C@@H](C1)N2c1cnc2c(-c3ccc4nc(C5CCOC5)sc4c3Cl)c[nH]c2n1` (stereo partly drawn) [Example 39, endo-8-{7-[7-chloro-2-(oxolan-3-yl)-1,3-benzothiazol-6-yl]-5H-pyrrolo[2,3-b]pyrazin-3-yl}-8-azabicyclo[3.2.1]octan-3-amine, dihydrochloride salt], the pIC50 was 8.16.
In the case of `Cc1nc2ccc(-c3c[nH]c4nc(N5[C@@H]6CC[C@H]5C[C@@H](N)C6)cnc34)c(Cl)c2c(=O)n1C` [Example 52, 6-{3-[endo-3-amino-8-azabicyclo[3.2.1]octan-8-yl]-5H-pyrrolo[2,3-b]pyrazin-7-yl}-5-chloro-2,3-dimethyl-3,4-dihydroquinazolin-4-one, methanesulfonic acid salt], the pIC50 was 7.89.

Same assay, conditions: DiFMUP substrate, 0.25 μM pIRS1 peptide, 30 min pre-incubation; average where more than one data point; read-out: SHP2 (IC50)
For `CCn1cc2c(Cl)c(-c3c[nH]c4nc(N5[C@@H]6CC[C@H]5C[C@@H](N)C6)cnc34)ccc2n1` [Example 26, endo-8-[7-(4-chloro-2-ethyl-2H-indazol-5-yl)-5H-pyrrolo[2,3-b]pyrazin-3-yl]-8-azabicyclo[3.2.1]octan-3-amine, hydrochloride salt], the pIC50 was 7.85.
Work on `CCn1cc2c(Cl)c(-c3c[nH]c4nc(N5[C@@H]6CC[C@H]5C[C@H](N)C6)cnc34)ccc2n1` [Example 28, exo-8-[7-(4-chloro-2-ethyl-2H-indazol-5-yl)-5H-pyrrolo[2,3-b]pyrazin-3-yl]-8-azabicyclo[3.2.1]octan-3-amine, hydrochloride salt] yielded a pIC50 of 8.02.
`Cn1cc2c(Cl)c(-c3c[nH]c4nc(N5CC[C@@H](N)[C@H](F)C5)cnc34)ccc2n1` [Example 29, (3R,4R)-1-[7-(4-chloro-2-methyl-2H-indazol-5-yl)-5H-pyrrolo[2,3-b]pyrazin-3-yl]-3-fluoropiperidin-4-amine, hydrochloride salt] showed a pIC50 of 7.39.
Compound `Cn1cc2c(Cl)c(-c3c[nH]c4nc(N5CC[C@H](N)[C@@H](F)C5)cnc34)ccc2n1` [Example 30, (3S,4S)-1-[7-(4-chloro-2-methyl-2H-indazol-5-yl)-5H-pyrrolo[2,3-b]pyrazin-3-yl]-3-fluoropiperidin-4-amine, hydrochloride salt] has a pIC50 of 6.82.
`Cn1cc2c(Cl)c(-c3c[nH]c4nc(N5CC[C@H](N)[C@@H](O)C5)cnc34)ccc2n1` [Example 31, (3S,4S)-4-amino-1-[7-(4-chloro-2-methyl-2H-indazol-5-yl)-5H-pyrrolo[2,3-b]pyrazin-3-yl]piperidin-3-ol, hydrochloride salt] showed a pIC50 of 7.66.
With `Cn1cc2c(Cl)c(-c3c[nH]c4nc(N5CC[C@@H](N)[C@@H](F)C5)cnc34)ccc2n1` [Example 32, (3S,4R)-1-[7-(4-chloro-2-methyl-2H-indazol-5-yl)-5H-pyrrolo[2,3-b]pyrazin-3-yl]-3-fluoropiperidin-4-amine, hydrochloride salt] the pIC50 was 7.25.
With `Cn1cc2c(Cl)c(-c3c[nH]c4nc(N5CC[C@H](N)[C@H](F)C5)cnc34)ccc2n1` [Example 33, (3R,4S)-1-[7-(4-chloro-2-methyl-2H-indazol-5-yl)-5H-pyrrolo[2,3-b]pyrazin-3-yl]-3-fluoropiperidin-4-amine, hydrochloride salt] the pIC50 was 7.48.
`Cn1cc2c(Cl)c(-c3c[nH]c4nc(N5[C@@H]6CC[C@H]5C[C@@H](N)C6)c(CO)nc34)ccc2n1` [Example 34, {3-[endo-3-amino-8-azabicyclo[3.2.1]octan-8-yl]-7-(4-chloro-2-methyl-2H-indazol-5-yl)-5H-pyrrolo[2,3-b]pyrazin-2-yl}methanol, hydrochloride salt] was tested, and the pIC50 was 7.89.
With `N[C@H]1C[C@H]2CC[C@@H](C1)N2c1cnc2c(-c3ccc4ccc(=O)[nH]c4c3Cl)c[nH]c2n1` [Example 35, 7-{3-[endo-3-amino-8-azabicyclo[3.2.1]octan-8-yl]-5H-pyrrolo[2,3-b]pyrazin-7-yl}-8-chloro-1,2-dihydroquinolin-2-one, hydrochloride salt] the pIC50 was 6.72.
With `Cn1nc2ccc(-c3c[nH]c4nc(N5[C@@H]6CC[C@H]5C[C@@H](N)C6)cnc34)c(Cl)c2c1CO` [Example 37, (5-{3-[endo-3-amino-8-azabicyclo[3.2.1]octan-8-yl]-5H-pyrrolo[2,3-b]pyrazin-7-yl}-4-chloro-2-methyl-2H-indazol-3-yl)methanol, methanesulfonic acid salt] the pIC50 was 7.29.
For `Cn1cc2c(F)c(-c3c[nH]c4nc(N5[C@@H]6CC[C@H]5C[C@@H](N)C6)cnc34)ccc2n1` [Example 38, endo-8-[7-(4-fluoro-2-methyl-2H-indazol-5-yl)-5H-pyrrolo[2,3-b]pyrazin-3-yl]-8-azabicyclo[3.2.1]octan-3-amine], the pIC50 was 7.28.
`Cc1nc2c(-c3ccc4nn(C)cc4c3Cl)n[nH]c2nc1N1[C@@H]2CC[C@H]1C[C@H](N)C2` [Example 40, exo-8-[3-(4-chloro-2-methyl-2H-indazol-5-yl)-5-methyl-1H-pyrazolo[3,4-b]pyrazin-6-yl]-8-azabicyclo[3.2.1]octan-3-amine, dihydrochloride salt] gave a pIC50 of 8.00.
With `Cn1nc2ccc(-c3c[nH]c4nc(N5[C@@H]6CC[C@H]5C[C@H](N)C6)cnc34)c(Cl)c2c1Cl` [Example 41, exo-8-[7-(3,4-dichloro-2-methyl-2H-indazol-5-yl)-5H-pyrrolo[2,3-b]pyrazin-3-yl]-8-azabicyclo[3.2.1]octan-3-amine, hydrochloride salt] the pIC50 was 8.44.
Work on `COCc1nc2ccc(-c3c[nH]c4nc(N5[C@@H]6CC[C@H]5C[C@@H](N)C6)cnc34)c(Cl)c2s1` [Example 43, endo-8-{7-[7-chloro-2-(methoxymethyl)-1,3-benzothiazol-6-yl]-5H-pyrrolo[2,3-b]pyrazin-3-yl}-8-azabicyclo[3.2.1]octan-3-amine, hydrochloride salt] yielded a pIC50 of 8.24.
Work on `N[C@H]1C[C@H]2CC[C@@H](C1)N2c1cnc2c(-c3ccc4nc(CO)sc4c3Cl)c[nH]c2n1` [Example 44, (6-{3-[endo-3-amino-8-azabicyclo[3.2.1]octan-8-yl]-5H-pyrrolo[2,3-b]pyrazin-7-yl}-7-chloro-1,3-benzothiazol-2-yl)methanol, hydrochloride salt] yielded a pIC50 of 8.17.
With `Cc1nc2c(-c3ccc4nn(C)cc4c3Cl)[nH]nc2nc1N1[C@@H]2CC[C@H]1CC(N)C2` (stereo partly drawn) [Example 48, endo-8-[3-(4-Chloro-2-methyl-2H-indazol-5-yl)-5-methyl-1H-pyrazolo[3,4-b]pyrazin-6-yl]-8-azabicyclo[3.2.1]octan-3-amine, hydrochloride salt] the pIC50 was 7.77.
In the case of `CN(C)C(=O)Cn1cc2c(Cl)c(-c3c[nH]c4nc(N5[C@@H]6CC[C@H]5C[C@@H](N)C6)cnc34)ccc2n1` [Example 49, 2-(5-{3-[endo-3-amino-8-azabicyclo[3.2.1]octan-8-yl]-5H-pyrrolo[2,3-b]pyrazin-7-yl}-4-chloro-2H-indazol-2-yl)-N,N-dimethylacetamide], the pIC50 was 7.82.
`Cn1cc2c(Cl)c(-c3c[nH]c4nc(N5[C@@H]6CC[C@H]5C[C@@H](N)C6)cnc34)cc(F)c2n1` [Example 50, endo-8-[7-(4-chloro-7-fluoro-2-methyl-2H-indazol-5-yl)-5H-pyrrolo[2,3-b]pyrazin-3-yl]-8-azabicyclo[3.2.1]octan-3-amine] was tested, and the pIC50 was 7.51.
Work on `Cn1nc2ccc(-c3c[nH]c4nc(N5[C@@H]6CC[C@H]5C[C@@H](N)C6)cnc34)c(Cl)c2n1` [Example 51, endo-8-[7-(4-chloro-2-methyl-2H-1,2,3-benzotriazol-5-yl)-5H-pyrrolo[2,3-b]pyrazin-3-yl]-8-azabicyclo[3.2.1]octan-3-amine] yielded a pIC50 of 7.54.
